From patent publication US20090215760A1, “SYNERGISTIC INSECTICIDE MIXTURES” (priority 2004, published 2009) come the findings set out here.

Structures are written as SMILES.

Format in all cases: in vivo
In test [1] the test system is Spodoptera frugiperda. The experiment in a line: Spodoptera frugiperda test, cabbage leaf dip. The following applies: 4 ppm, single active compound. The text has this: (§1) The action expected for a given combination of two active components can be calculated as follows (cf. Colby, S. R., “Calculating Synergistic and Antagonistic Responses of Herbicide Combinations”, Weeds 15, pages 20-22, 1967):
(§2) if • X stands for the death rate expressed as % of the untreated controls on application of active component A at an applied amount of m ppm • Y for the death rate expressed as % of the untreated controls on application of active component B at an applied amount of n ppm • E for the death rate expressed as % of the untreated controls on application of active components A and B at applied amount of m and n ppm • then
(§3) If the actual insecticidal death rate is greater than calculated, the combination is superadditive in its death rate, i.e. there is a synergistic effect. In this case the death rate actually observed must be greater than the value for the expected death rate (E) calculated from the above equation.
Spodoptera frugiperda Test […]
(§4) After the desired time the death rate is calculated as %, where 100% means that all caterpillars were killed, 0% that no caterpillars were killed. The death rates are calculated by the Colby equation.

Test [2] has as its system Myzus persicae. Nature of the test: Myzus persicae test, cabbage leaf dip. The following applies: single active compound.
Excerpt: as §1, §2, §3
(§5) To prepare a suitable formulation of the active material 1 part by weight of the active material is mixed with the given amounts of solvent and emulsifier and the concentrate is diluted to the desired concentration with water containing the emulsifier.
Cabbage leaves (Brassica oleracea) which are highly infected by the green peach aphid (Myzus persicae) are treated by dipping into the active mixture formulation of the desired concentration.
After the desired time the death rate is calculated as %, where 100% means that all aphids were killed, 0% that no aphids were killed. The death rates were calculated by the Colby equation.

The subject of test [3] is Plutella xylostella, normal sensitive strain. The experiment in a line: Plutella xylostella test (normal sensitive strain), cabbage leaf dip. The following applies: single active compound.
Excerpt: as §1, §2, §3
Plutella xylostella Test (Normal Sensitive Strain)
as §5
Cabbage leaves (Brassica oleracea) are treated by dipping into the active mixture formulation at the desired concentration and infected with the caterpillar of the diamondback (cabbage) moth (Plutella xylostella, normal sensitive strain) while the leaves are still moist.
as §4

Setting [4] is: 4 ppm, 6 d (Table B, clothianidin series).

In the case of `CC[S+]([O-])c1c(C#N)nn(-c2c(Cl)cc(C(F)(F)F)cc2Cl)c1N` (stereo not drawn) [Ethiprole, ethiprole], the “Death rate in % after 6 d” value in test [1] is on record as 0%; in test [2] (0.8 ppm, 6 d (Table B, imidacloprid series)), 0%; in test [2] (setting [4]), 0%; in test [2] (4 ppm, 6 d (Table B, thiacloprid series)), 10%; in test [3] (4 ppm), 0%. The “Death rate in % after 4 d” value in test [3] (20 ppm) was 35%.

Turning to `CN/C(=N\[N+](=O)[O-])NCc1cnc(Cl)s1` [Clothianidin], the “Death rate in % after 6 d” value in test [2] (setting [4]) came to 0%; in test [3] (4 ppm) it was 10%.

With `N#C/N=C1\SCCN1Cc1ccc(Cl)nc1` [Thiacloprid], the “Death rate in % after 6 d” value in test [2] (0.8 ppm, 6 d (Table B, thiacloprid series)) was 15%. Further, in test [3] (4 ppm), the “Death rate in % after 4 d” value amounted to 0%.

For `O=[N+]([O-])/N=C1\NCCN1Cc1ccc(Cl)nc1` [Imidacloprid], the “Death rate in % after 6 d” value worked out at 15% in test [1] and 0% in test [2] (0.16 ppm, 6 d (Table B, imidacloprid series)).
